Test results published in patent publication US20250127770A1, “FORMULATIONS OF RADIPRODIL” (GRIN Therapeutics, Inc., priority 2021, published 2025).

Experiments:
[1] = Stability study of radiprodil solid forms (dihydrate vs anhydrous form A); type: physicochemical; conditions: in presence of water
[2] = Dissolution test, USPII paddle apparatus, 0.5% sodium lauryl sulphate solution in water; type: physicochemical; conditions: without reconstitution in SYRSPEND SF and water prior to the test; FIG. 2
Protocol: This study summarizes dissolution experiments preformed on the radiprodil drug substance and on the drug product including two drug loadings with and without reconstitution in SYRSPEND® and water prior to the dissolution test.
All dissolution experiments were performed on six vessels and the comparative curves were plotted using the average of them.
Some dissolution experiments were performed using prior to the dissolution a reconstitution in Syrpend® and water. In that case, the reconstitution was prepared and let under stirring for 1 night prior to the dissolution test. In order to mimic the clinical pharmacy manual, an additional test was performed with an extemporaneous suspension (15 min under stirring prior to the dissolution).
Dissolution and high performance liquid chromatography (HPLC) parameters used in the experiments are provided below in Tables […] and 12, respectively.
Radiprodil, as the dihydrate and Form A, as well as Form A containing granules (1% and 10% as described above) and blends of dihydrate and Form A (1% and 10% blends of dihydrate form and Form A) were submitted to dissolution tests in sodium lauryl sulfate (0.5% in water). […]

SMILES | Stability of solid form [1] | Dissolution profile [2]
O=C(Nc1ccc2[nH]c(=O)oc2c1)C(=O)N1CCC(Cc2ccc(F)cc2)CC1 (single isomer, unassigned) [anhydrous form A, Radiprodil] | more stable than the dihydrate even in presence of water | 
O=C(Nc1ccc2[nH]c(=O)oc2c1)C(=O)N1CCC(Cc2ccc(F)cc2)CC1 [dihydrate form, Radiprodil] |  | more rapid in aqueous media than the one of anhydrous form A
